Test results taken from patent publication US20250049926A1, “PHARMACEUTICAL COMPOSITIONS COMPRISING MODIFIED BETACYCLODEXTRINS” (priority 2021, published 2025).

Experiment: Solubility measurement of saturated solutions by HPLC at room temperature (0 h and 24 h)
Assay type: physicochemical
Details: for solubility at 0 h / solubility at 24 h: thermodynamic from solid
Experimental: The vial contents are prepared starting with 2.5 mg of the compound of formula (I). The primary excipient is added followed by any further excipient and then the buffered water to a total volume of 500 μL. All components are mixed in a vortex mixer for ca. 5 minutes. If everything is dissolved an additional 2.5 mg of the compound of formula (I) is added and vortexed again for ca. 5 minutes. This is repeated until a saturated solution (suspension) is obtained.
The solubility in vial 1 is measured immediately as described below.
To measure solubility 400 μl of the suspension are taken and placed in a centrifugation device above a 0.2 μm filter. Centrifugation is performed at 14,000 rpm for 10 minutes and if necessary repeated for additional 10 minutes. The filter is removed from the vial and 100 μL is taken and diluted with 400 μL high-performance liquid chromatography (HPLC) diluent solution (see below) or diluted with 900 μL HPLC diluent solution in the event 5 mg or more of the compound of formula (I) was used. The pH of the solution is measured. A further 100 μL of the vial solution is taken and diluted with 400 μL of HPLC diluent solution or diluted with 900 μL HPLC diluent solution in the event 5 mg or more of the compound of formula (I) was used. The assay of the solution versus control stock solution is measured by HPLC and the solubility is calculated as described below. The HPLC diluent solution is 0.1% trifluoroacetic acid (TFA) in acetonitrile (ACN) and water (1:1 v/v).
All solubility tests are performed at room temperature.
The HPLC method for assessing solubility is performed as follows:
The solubility of the compound of formula (I) is calculated according to the following formula:
[formula] • Solubility=solubility of compound of formula (I) (mg/mL) • A=peak area of the compound of the sample tested • a=value of constant “a” in Linear regression equation y=ax+b • b=value of constant “b” in Linear regression equation y=ax+b • n=dilution time • Formulations for stability assessment are prepared as follows: […]

[1] = buffered water with excipients, pH 2, aqueous with cosolvent or surfactant or cyclodextrin, CBS 30 mM pH 2.0, NaCl 3 mg/mL, SBE-beta-CD 40 mg/mL, pH exp 2.2

- effect of additional excipient on solubility with SBE-beta-CD (Kollidon 12 PF, Kolliphor P188, soybean lecithin): very small impact on solubility
- effect of additional excipient on solubility with SBE-beta-CD (PEG 400, glycerol, propylene glycol and PEG 4000): do not increase the solubility
- effect of additional excipient on solubility with SBE-beta-CD (addition of Tween 80): slightly improves solubility
- effect of additional excipient on solubility with SBE-beta-CD (addition of carboxymethylcellulose sodium, solution sticky at 24 hours): decreases solubility
- solubility at 0 h (buffered water with excipient (saturated solution), pH 4, aqueous buffer, CBS 30 mM pH 4.0, Ethanol 20 mg/mL, pH exp 4.1): 160 µg/mL
- solubility at 24 h (buffered water with excipient (saturated solution), pH 4, aqueous buffer, CBS 30 mM pH 4.0, Ethanol 20 mg/mL, pH exp 4.2): 110 µg/mL
- solubility at 0 h (buffered water with excipient (saturated solution), pH 4, aqueous buffer, CBS 30 mM pH 4.0, PEG 400 20 mg/mL, pH exp 4.1): 220 µg/mL
- solubility at 24 h (buffered water with excipient (saturated solution), pH 4, aqueous buffer, CBS 30 mM pH 4.0, PEG 400 20 mg/mL, pH exp 4.3): 150 µg/mL
- solubility at 0 h (buffered water with excipient (saturated solution), pH 4, aqueous with cosolvent or surfactant or cyclodextrin, CBS 30 mM pH 4.0, NaCl 3 mg/mL, HP-beta-CD 40 mg/mL, pH exp 4.10): 1670 µg/mL
- solubility at 24 h (buffered water with excipient (saturated solution), pH 4, aqueous with cosolvent or surfactant or cyclodextrin, CBS 30 mM pH 4.0, NaCl 3 mg/mL, HP-beta-CD 40 mg/mL, pH exp 4.28): 980 µg/mL
- solubility at 0 h (buffered water with excipient (saturated solution), pH 4, aqueous with cosolvent or surfactant or cyclodextrin, CBS 30 mM pH 4.0, NaCl 3 mg/mL, SBE-beta-CD 10 mg/mL, pH exp 4.1): 890 µg/mL
- solubility at 24 h (buffered water with excipient (saturated solution), pH 4, aqueous with cosolvent or surfactant or cyclodextrin, CBS 30 mM pH 4.0, NaCl 3 mg/mL, SBE-beta-CD 10 mg/mL, pH exp 4.2): 1110 µg/mL
- solubility at 0 h (buffered water with excipient (saturated solution), pH 4, aqueous with cosolvent or surfactant or cyclodextrin, CBS 30 mM pH 4.0, NaCl 3 mg/mL, SBE-beta-CD 25 mg/mL, pH exp 4.1): 1840 µg/mL
- solubility at 24 h (buffered water with excipient (saturated solution), pH 4, aqueous with cosolvent or surfactant or cyclodextrin, CBS 30 mM pH 4.0, NaCl 3 mg/mL, SBE-beta-CD 25 mg/mL, pH exp 4.2): 2540 µg/mL
- solubility at 0 h (buffered water with excipient (saturated solution), pH 4, aqueous with cosolvent or surfactant or cyclodextrin, CBS 30 mM pH 4.0, NaCl 3 mg/mL, SBE-beta-CD 40 mg/mL, pH exp 4.0): 2480 µg/mL
- solubility at 24 h (buffered water with excipient (saturated solution), pH 4, aqueous with cosolvent or surfactant or cyclodextrin, CBS 30 mM pH 4.0, NaCl 3 mg/mL, SBE-beta-CD 40 mg/mL, pH exp 4.2): 3800 µg/mL
- solubility at 0 h (buffered water with excipient (saturated solution), pH 4, aqueous with cosolvent or surfactant or cyclodextrin, CBS 30 mM pH 4.0, Ethanol 50 mg/mL, pH exp 4.2): 190 µg/mL
- solubility at 24 h (buffered water with excipient (saturated solution), pH 4, aqueous with cosolvent or surfactant or cyclodextrin, CBS 30 mM pH 4.0, Ethanol 50 mg/mL, pH exp 4.3): 90 µg/mL
- solubility at 0 h (buffered water with excipient (saturated solution), pH 4, aqueous with cosolvent or surfactant or cyclodextrin, CBS 30 mM pH 4.0, Ethanol 100 mg/mL, pH exp 4.2): 260 µg/mL
- solubility at 24 h (buffered water with excipient (saturated solution), pH 4, aqueous with cosolvent or surfactant or cyclodextrin, CBS 30 mM pH 4.0, Ethanol 100 mg/mL, pH exp 4.4): 140 µg/mL
- solubility at 0 h (buffered water with excipient (saturated solution), pH 4, aqueous with cosolvent or surfactant or cyclodextrin, CBS 30 mM pH 4.0, Glycerol 50 mg/mL, pH exp 4.1): 180 µg/mL
- solubility at 24 h (buffered water with excipient (saturated solution), pH 4, aqueous with cosolvent or surfactant or cyclodextrin, CBS 30 mM pH 4.0, Glycerol 50 mg/mL, pH exp 4.3): 120 µg/mL
- solubility at 0 h (buffered water with excipient (saturated solution), pH 4, aqueous with cosolvent or surfactant or cyclodextrin, CBS 30 mM pH 4.0, Glycerol 100 mg/mL, pH exp 4.1): 210 µg/mL
- solubility at 24 h (buffered water with excipient (saturated solution), pH 4, aqueous with cosolvent or surfactant or cyclodextrin, CBS 30 mM pH 4.0, Glycerol 100 mg/mL, pH exp 4.3): 130 µg/mL
- solubility at 0 h (buffered water with excipient (saturated solution), pH 4, aqueous with cosolvent or surfactant or cyclodextrin, CBS 30 mM pH 4.0, Glycerol 500 mg/mL, pH exp 4.6): 1060 µg/mL
- solubility at 24 h (buffered water with excipient (saturated solution), pH 4, aqueous with cosolvent or surfactant or cyclodextrin, CBS 30 mM pH 4.0, Glycerol 500 mg/mL, pH exp 4.8): 260 µg/mL
- solubility at 0 h (buffered water with excipient (saturated solution), pH 4, aqueous with cosolvent or surfactant or cyclodextrin, CBS 30 mM pH 4.0, PEG 100 mg/mL, pH exp 4.3): 600 µg/mL
- solubility at 24 h (buffered water with excipient (saturated solution), pH 4, aqueous with cosolvent or surfactant or cyclodextrin, CBS 30 mM pH 4.0, PEG 100 mg/mL, pH exp 4.5): 400 µg/mL
- solubility at 0 h (buffered water with excipient (saturated solution), pH 4, aqueous with cosolvent or surfactant or cyclodextrin, CBS 30 mM pH 4.0, PEG 400 50 mg/mL, pH exp 4.1): 340 µg/mL
- solubility at 24 h (buffered water with excipient (saturated solution), pH 4, aqueous with cosolvent or surfactant or cyclodextrin, CBS 30 mM pH 4.0, PEG 400 50 mg/mL, pH exp 4.4): 230 µg/mL
- solubility at 0 h (buffered water with excipient (saturated solution), pH 4, aqueous with cosolvent or surfactant or cyclodextrin, CBS 30 mM pH 4.0, PEG 400 500 mg/mL, pH exp 6.3): 4100 µg/mL
- solubility at 24 h (buffered water with excipient (saturated solution), pH 4, aqueous with cosolvent or surfactant or cyclodextrin, CBS 30 mM pH 4.0, PEG 400 500 mg/mL, pH exp 6.4): ≥ 4550 µg/mL
- solubility at 0 h (buffered water with excipient (saturated solution), pH 4, aqueous with cosolvent or surfactant or cyclodextrin, CBS 30 mM pH 4.0, PG 50 mg/mL, pH exp 4.1): 200 µg/mL
- solubility at 24 h (buffered water with excipient (saturated solution), pH 4, aqueous with cosolvent or surfactant or cyclodextrin, CBS 30 mM pH 4.0, PG 50 mg/mL, pH exp 4.3): 110 µg/mL
- solubility at 0 h (buffered water with excipient (saturated solution), pH 4, aqueous with cosolvent or surfactant or cyclodextrin, CBS 30 mM pH 4.0, PG 100 mg/mL, pH exp 4.1): 280 µg/mL
- solubility at 24 h (buffered water with excipient (saturated solution), pH 4, aqueous with cosolvent or surfactant or cyclodextrin, CBS 30 mM pH 4.0, PG 100 mg/mL, pH exp 4.4): 150 µg/mL
- solubility at 0 h (buffered water with excipient (saturated solution), pH 4, aqueous with cosolvent or surfactant or cyclodextrin, CBS 30 mM pH 4.0, PG 500 mg/mL, pH exp 5.4): 3740 µg/mL
- solubility at 24 h (buffered water with excipient (saturated solution), pH 4, aqueous with cosolvent or surfactant or cyclodextrin, CBS 30 mM pH 4.0, PG 500 mg/mL, pH exp 5.3): 2200 µg/mL
- solubility at 0 h (buffered water with excipient (saturated solution), pH 5, aqueous with cosolvent or surfactant or cyclodextrin, CBS 30 mM pH 5.0, NaCl 3 mg/mL, SBE-beta-CD 40 mg/mL, pH exp 5.0): 2240 µg/mL
- solubility at 24 h (buffered water with excipient (saturated solution), pH 5, aqueous with cosolvent or surfactant or cyclodextrin, CBS 30 mM pH 5.0, NaCl 3 mg/mL, SBE-beta-CD 40 mg/mL, pH exp 5.3): 3520 µg/mL
- solubility at 0 h (buffered water with excipient (saturated solution), pH 5.5, aqueous with cosolvent or surfactant or cyclodextrin, CBS 30 mM pH 5.5, NaCl 3 mg/mL, SBE-beta-CD 40 mg/mL, pH exp 5.5): 1630 µg/mL
- solubility at 0 h [1]: 6590 µg/mL
- solubility at 24 h [1]: 5470 µg/mL
- solubility at 0 h (buffered water with excipients, pH 4, aqueous with cosolvent or surfactant or cyclodextrin, ABS (acetate) 30 mM pH 4.0, NaCl 3 mg/mL, SBE-beta-CD 40 mg/mL, pH exp 4.0): 2880 µg/mL
- solubility at 24 h (buffered water with excipients, pH 4, aqueous with cosolvent or surfactant or cyclodextrin, ABS (acetate) 30 mM pH 4.0, NaCl 3 mg/mL, SBE-beta-CD 40 mg/mL, pH exp 4.6): 3720 µg/mL
- solubility at 0 h (buffered water with excipients, pH 4, aqueous with cosolvent or surfactant or cyclodextrin, ASBS (aspartate) 30 mM pH 4.0, NaCl 3 mg/mL, SBE-beta-CD 40 mg/mL, pH exp 4.0): 2880 µg/mL
- solubility at 24 h (buffered water with excipients, pH 4, aqueous with cosolvent or surfactant or cyclodextrin, ASBS (aspartate) 30 mM pH 4.0, NaCl 3 mg/mL, SBE-beta-CD 40 mg/mL, pH exp 4.6): 3720 µg/mL
- solubility at 0 h (buffered water with excipients, pH 4, aqueous with cosolvent or surfactant or cyclodextrin, CBS 30 mM pH 4.0, NaCl 3 mg/mL, SBE-beta-CD 40 mg/mL + Glycerol 1 mg/mL, pH exp 4.1): 2400 µg/mL
- solubility at 24 h (buffered water with excipients, pH 4, aqueous with cosolvent or surfactant or cyclodextrin, CBS 30 mM pH 4.0, NaCl 3 mg/mL, SBE-beta-CD 40 mg/mL + Glycerol 1 mg/mL, pH exp 4.3): 3720 µg/mL
- solubility at 0 h (buffered water with excipients, pH 4, aqueous with cosolvent or surfactant or cyclodextrin, CBS 30 mM pH 4.0, NaCl 3 mg/mL, SBE-beta-CD 40 mg/mL + Glycerol 5 mg/mL, pH exp 4.2): 2320 µg/mL
- solubility at 24 h (buffered water with excipients, pH 4, aqueous with cosolvent or surfactant or cyclodextrin, CBS 30 mM pH 4.0, NaCl 3 mg/mL, SBE-beta-CD 40 mg/mL + Glycerol 5 mg/mL, pH exp 4.3): 3710 µg/mL
- solubility at 0 h (buffered water with excipients, pH 4, aqueous with cosolvent or surfactant or cyclodextrin, CBS 30 mM pH 4.0, NaCl 3 mg/mL, SBE-beta-CD 40 mg/mL + Glycerol 50 mg/mL, pH exp 4.1): 2330 µg/mL
- solubility at 24 h (buffered water with excipients, pH 4, aqueous with cosolvent or surfactant or cyclodextrin, CBS 30 mM pH 4.0, NaCl 3 mg/mL, SBE-beta-CD 40 mg/mL + Glycerol 50 mg/mL, pH exp 4.2): 3570 µg/mL
- solubility at 0 h (buffered water with excipients, pH 4, aqueous with cosolvent or surfactant or cyclodextrin, CBS 30 mM pH 4.0, NaCl 3 mg/mL, SBE-beta-CD 40 mg/mL + HPMC 5 mg/mL, pH exp 4.1): 2230 µg/mL
- solubility at 24 h (buffered water with excipients, pH 4, aqueous with cosolvent or surfactant or cyclodextrin, CBS 30 mM pH 4.0, NaCl 3 mg/mL, SBE-beta-CD 40 mg/mL + HPMC 5 mg/mL, pH exp 4.3): 3530 µg/mL
Structure (SMILES): COc1cc(N2CCNCC2)ccc1Nc1ncc2c(n1)-n1ccc(C(=O)Nc3c(C)cccc3C)c1CC2 [compound of formula (I)]
